Results reported in PubChem BioAssay (NCI).
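48-hour exposure; five concentrations; linearly interpolated endpoints. TGI: concentration producing complete growth inhibition.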

Columns and labels:
Experiment in all cases: inhibition of tumour cell growth, NCI panel, 48 h
HS 578T breast = test system: HS 578T breast
UO-31 renal = test system: UO-31 renal
OVCAR-8 ovarian = test system: OVCAR-8 ovarian
NCI/ADR-RES ovarian = test system: NCI/ADR-RES ovarian
HCT-116 colon = test system: HCT-116 colon
SW-620 colon = test system: SW-620 colon
EKVX NSCLC = test system: EKVX NSCLC
HT29 colon = test system: HT29 colon
BT-549 breast = test system: BT-549 breast
A498 renal = test system: A498 renal
SF-539 CNS = test system: SF-539 CNS
HOP-92 NSCLC = test system: HOP-92 NSCLC
K-562 leukemia = test system: K-562 leukemia
T-47D breast = test system: T-47D breast
OVCAR-5 ovarian = test system: OVCAR-5 ovarian
SK-MEL-2 melanoma = test system: SK-MEL-2 melanoma
CCRF-CEM leukemia = test system: CCRF-CEM leukemia
SK-MEL-5 melanoma = test system: SK-MEL-5 melanoma
OVCAR-3 ovarian = test system: OVCAR-3 ovarian
MALME-3M melanoma = test system: MALME-3M melanoma
MOLT-4 leukemia = test system: MOLT-4 leukemia
MDA-MB-231 breast = test system: MDA-MB-231 breast
SF-295 CNS = test system: SF-295 CNS
LOX IMVI melanoma = test system: LOX IMVI melanoma
A549 NSCLC = test system: A549 NSCLC
SN12C renal = test system: SN12C renal
HCT-15 colon = test system: HCT-15 colon
ACHN renal = test system: ACHN renal
SNB-19 CNS = test system: SNB-19 CNS
MCF7 breast = test system: MCF7 breast
U251 CNS = test system: U251 CNS
MDA-N = test system: MDA-N
TK-10 renal = test system: TK-10 renal
KM12 colon = test system: KM12 colon
CAKI-1 renal = test system: CAKI-1 renal
M14 melanoma = test system: M14 melanoma
UACC-257 melanoma = test system: UACC-257 melanoma
RPMI-8226 leukemia = test system: RPMI-8226 leukemia
SR leukemia = test system: SR leukemia
SF-268 CNS = test system: SF-268 CNS
786-0 renal = test system: 786-0 renal
HL-60(TB) leukemia = test system: HL-60(TB) leukemia
DU-145 prostate = test system: DU-145 prostate
OVCAR-4 ovarian = test system: OVCAR-4 ovarian
HOP-62 NSCLC = test system: HOP-62 NSCLC
IGROV1 ovarian = test system: IGROV1 ovarian
UACC-62 melanoma = test system: UACC-62 melanoma
SK-OV-3 ovarian = test system: SK-OV-3 ovarian
NCI-H522 lung = test system: NCI-H522 lung
MDA-MB-435 = test system: MDA-MB-435
NCI-H23 lung = test system: NCI-H23 lung
COLO 205 colon = test system: COLO 205 colon
SK-MEL-28 melanoma = test system: SK-MEL-28 melanoma
NCI-H226 lung = test system: NCI-H226 lung
PC-3 prostate = test system: PC-3 prostate
SNB-75 CNS = test system: SNB-75 CNS
RXF 393 renal = test system: RXF 393 renal
HCC-2998 colon = test system: HCC-2998 colon

Cc1cc(-c2cc(C(C)(C)C)c(O)c(C(C)(C)C)c2)c(C)cc1-c1cc(C(C)(C)C)c(O)c(C(C)(C)C)c1
TGI (HS 578T breast): > 100 µM
TGI (UO-31 renal): > 100 µM
TGI (OVCAR-8 ovarian): > 100 µM
TGI (NCI/ADR-RES ovarian): > 100 µM
TGI (HCT-116 colon): > 100 µM
TGI (SW-620 colon): > 100 µM
TGI (EKVX NSCLC): > 100 µM
TGI (HT29 colon): > 100 µM
TGI (BT-549 breast): > 100 µM
TGI (A498 renal): 92.7 µM
TGI (SF-539 CNS): > 100 µM
TGI (HOP-92 NSCLC): 38.2 µM
TGI (K-562 leukemia): > 100 µM
TGI (T-47D breast): > 100 µM
TGI (OVCAR-5 ovarian): > 100 µM
TGI (SK-MEL-2 melanoma): > 100 µM
TGI (CCRF-CEM leukemia): > 100 µM
TGI (SK-MEL-5 melanoma): > 100 µM
TGI (OVCAR-3 ovarian): > 100 µM
TGI (MALME-3M melanoma): > 100 µM
TGI (MOLT-4 leukemia): > 100 µM
TGI (MDA-MB-231 breast): > 100 µM
TGI (SF-295 CNS): > 100 µM
TGI (LOX IMVI melanoma): > 100 µM
TGI (A549 NSCLC): > 100 µM
TGI (SN12C renal): > 100 µM
TGI (HCT-15 colon): > 100 µM
TGI (ACHN renal): > 100 µM
TGI (SNB-19 CNS): > 100 µM
TGI (MCF7 breast): > 100 µM
TGI (U251 CNS): > 100 µM
TGI (MDA-N): > 100 µM
TGI (TK-10 renal): > 100 µM
TGI (KM12 colon): > 100 µM
TGI (CAKI-1 renal): > 100 µM
TGI (M14 melanoma): > 100 µM
TGI (UACC-257 melanoma): > 100 µM
TGI (RPMI-8226 leukemia): > 100 µM
TGI (SR leukemia): > 100 µM
TGI (SF-268 CNS): > 100 µM
TGI (786-0 renal): > 100 µM
TGI (HL-60(TB) leukemia): > 100 µM
TGI (DU-145 prostate): > 100 µM
TGI (OVCAR-4 ovarian): > 100 µM
TGI (HOP-62 NSCLC): > 100 µM
TGI (IGROV1 ovarian): > 100 µM
TGI (UACC-62 melanoma): > 100 µM
TGI (SK-OV-3 ovarian): > 100 µM
TGI (NCI-H522 lung): > 100 µM
TGI (MDA-MB-435): 32.7 µM
TGI (NCI-H23 lung): > 100 µM
TGI (COLO 205 colon): > 100 µM
TGI (SK-MEL-28 melanoma): > 100 µM
TGI (NCI-H226 lung): > 100 µM
TGI (PC-3 prostate): > 100 µM
TGI (SNB-75 CNS): > 100 µM

O=C([C@H](O)[C@@H](O)c1cccc(Cl)c1)C12CC3CC(CC(C3)C1)C2
TGI (HS 578T breast): 6.48 µM
TGI (UO-31 renal): 3.83 µM
TGI (OVCAR-8 ovarian): 4.69 µM
TGI (NCI/ADR-RES ovarian): 5.52 µM
TGI (HCT-116 colon): 6.79 µM
TGI (SW-620 colon): > 45 µM
TGI (EKVX NSCLC): 4.38 µM
TGI (HT29 colon): 6.17 µM
TGI (BT-549 breast): 3.74 µM
TGI (A498 renal): 5.46 µM
TGI (SF-539 CNS): 3.61 µM
TGI (K-562 leukemia): > 100 µM
TGI (T-47D breast): 4.21 µM
TGI (OVCAR-5 ovarian): 8.79 µM
TGI (SK-MEL-2 melanoma): 4.24 µM
TGI (CCRF-CEM leukemia): > 100 µM
TGI (SK-MEL-5 melanoma): 14.8 µM
TGI (OVCAR-3 ovarian): 4.37 µM
TGI (MALME-3M melanoma): 18.2 µM
TGI (MOLT-4 leukemia): > 100 µM
TGI (MDA-MB-231 breast): 5.44 µM
TGI (SF-295 CNS): 11.4 µM
TGI (LOX IMVI melanoma): 2.65 µM
TGI (A549 NSCLC): 5.25 µM
TGI (SN12C renal): 3.95 µM
TGI (HCT-15 colon): 6.62 µM
TGI (ACHN renal): 3.56 µM
TGI (SNB-19 CNS): 4.07 µM
TGI (MCF7 breast): 2.77 µM
TGI (RXF 393 renal): 3.98 µM
TGI (HCC-2998 colon): 4.15 µM
TGI (U251 CNS): 2.98 µM
TGI (MDA-N): 5.92 µM
TGI (TK-10 renal): 3.69 µM
TGI (KM12 colon): 6.01 µM
TGI (CAKI-1 renal): 3.98 µM
TGI (M14 melanoma): 7.16 µM
TGI (UACC-257 melanoma): 4.8 µM
TGI (RPMI-8226 leukemia): > 22.7 µM
TGI (SR leukemia): > 100 µM
TGI (SF-268 CNS): 4.04 µM
TGI (786-0 renal): 3.3 µM
TGI (HL-60(TB) leukemia): 3.79 µM
TGI (DU-145 prostate): 5.08 µM
TGI (OVCAR-4 ovarian): 7.49 µM
TGI (HOP-62 NSCLC): 7.9 µM
TGI (IGROV1 ovarian): 2.68 µM
TGI (UACC-62 melanoma): 3.32 µM
TGI (SK-OV-3 ovarian): 22.8 µM
TGI (NCI-H522 lung): 5.04 µM
TGI (MDA-MB-435): 8.46 µM
TGI (NCI-H23 lung): 3.84 µM
TGI (COLO 205 colon): 4.23 µM
TGI (SK-MEL-28 melanoma): 12.6 µM
TGI (NCI-H226 lung): 12.3 µM
TGI (PC-3 prostate): 4.05 µM
TGI (SNB-75 CNS): 3.7 µM
